Molecules are shown by their SMILES. Bridge positions count the residues as written; N and C are the ends. Square brackets hold non-standard residues; d marks the D form. Peptide text beside a SMILES is read from it. I, II: the chains in the order shown. Phe(3,4-Cl2) = N[C@@H](Cc1ccc(Cl)c(Cl)c1)C(=O)O; tBuAla = CC(C)(C)C[C@H](N)C(=O)O; hLeu = CC(C)CC[C@H](N)C(=O)O; Nle = CCCC[C@H](N)C(=O)O

This assay deals with Frizzled-7 (Homo sapiens, UniProt O75084). The assay can be described thus: Binding affinity to recombinant human Frizzled-7 (Gln33 to Leu185 residues)/human IgG1 chimeric protein expressed in CHO cells assessed as […] by SPR assay. In general terms: SPR reads the build-up and loss of mass on a sensor chip optically.
As a reminder, the Kd is the constant that tells how readily two partners part at equilibrium. On to `CSCC[C@H](NC(=O)[C@@H](CC1CCC1)NC(=O)[C@H](Cc1cnc[nH]1)NC(=O)[C@H](CSSC[C@H](NC(=O)[C@H](Cc1c[nH]c2ccccc12)NC(=O)[C@H](Cc1ccccc1)NC(=O)[C@H](CCC(=O)O)NC(=O)[C@H](CC(C)C)NC(=O)[C@H](CC(=O)O)NC(=O)[C@H](CC(=O)O)NC(=O)[C@H](CO)NC(C)=O)C(=O)N[C@@H](Cc1cnc[nH]1)C(=O)N[C@H](CC1CCC1)C(=O)N[C@@H](CCSC)C(=O)N[C@@H](Cc1ccc(O)cc1)C(N)=O)NC(=O)[C@H](Cc1c[nH]c2ccccc12)NC(=O)[C@H](Cc1ccccc1)NC(=O)[C@H](CCC(=O)O)NC(=O)[C@H](CC(C)C)NC(=O)[C@H](CC(=O)O)NC(=O)[C@H](CC(=O)O)NC(=O)[C@H](CO)NC(C)=O)C(=O)N[C@@H](Cc1ccc(O)cc1)C(N)=O`, for which the Kd was determined as 2.1 nM.

For the molecule `CC[C@H](C)[C@H](NC(=O)[C@H](Cc1cnc[nH]1)NC(=O)[C@H](CSSCC[C@H](NC(=O)[C@H](Cc1c[nH]c2ccccc12)NC(=O)[C@H](CC(C)C)NC(=O)[C@H](CCC(=O)O)NC(=O)[C@H](CC(C)C)NC(=O)[C@H](CC(=O)O)NC(=O)[C@H](CC(=O)O)NC(=O)[C@@H](NC(C)=O)[C@@H](C)O)C(=O)N[C@@H](Cc1cnc[nH]1)C(=O)N[C@H](C(=O)N[C@@H](CCSC)C(=O)N[C@@H](Cc1ccc(O)cc1)C(N)=O)[C@@H](C)CC)NC(=O)[C@H](Cc1c[nH]c2ccccc12)NC(=O)[C@H](CC(C)C)NC(=O)[C@H](CCC(=O)O)NC(=O)[C@H](CC(C)C)NC(=O)[C@H](CC(=O)O)NC(=O)[C@H](CC(=O)O)NC(=O)[C@@H](NC(C)=O)[C@H](C)O)C(=O)N[C@@H](CCSC)C(=O)N[C@@H](Cc1ccc(O)cc1)C(N)=O`, the Kd was determined as 6.3 nM. Take `CC[C@H](C)[C@H](NC(=O)[C@H](Cc1cnc[nH]1)NC(=O)[C@H](CSSC[C@H](NC(=O)[C@H](Cc1c[nH]c2ccccc12)NC(=O)[C@H](Cc1ccccc1)NC(=O)[C@H](CCC(=O)O)NC(=O)[C@H](CC(C)C)NC(=O)[C@H](CC(=O)O)NC(=O)[C@H](CC(=O)O)NC(=O)[C@H](CO)NC(C)=O)C(=O)N[C@@H](Cc1cnc[nH]1)C(=O)N[C@H](C(=O)N[C@@H](CCSC)C(=O)N[C@@H](Cc1ccc(O)cc1)C(N)=O)[C@@H](C)CC)NC(=O)[C@H](Cc1c[nH]c2ccccc12)NC(=O)[C@H](Cc1ccccc1)NC(=O)[C@H](CCC(=O)O)NC(=O)[C@H](CC(C)C)NC(=O)[C@H](CC(=O)O)NC(=O)[C@H](CC(=O)O)NC(=O)[C@H](CO)NC(C)=O)C(=O)N[C@@H](CCSC)C(=O)N[C@@H](Cc1ccc(O)cc1)C(N)=O` (I: Ac-SDDLEFWCHIMY-NH2 / II: Ac-SDDLEFWCHIMY-NH2; disulfide I:8-II:8): the Kd is 0.96 nM.

For the molecule `CSCC[C@H](NC(=O)[C@@H](NC(=O)[C@H](Cc1cnc[nH]1)NC(=O)[C@H](CSSC[C@H](NC(=O)[C@H](Cc1c[nH]c2ccccc12)NC(=O)[C@H](Cc1ccccc1)NC(=O)[C@H](CCC(=O)O)NC(=O)[C@H](CC(C)C)NC(=O)[C@H](CC(=O)O)NC(=O)[C@H](CC(=O)O)NC(=O)[C@H](CO)NC(C)=O)C(=O)N[C@@H](Cc1cnc[nH]1)C(=O)N[C@H](C(=O)N[C@@H](CCSC)C(=O)N[C@@H](Cc1ccc(Cl)c(Cl)c1)C(N)=O)C(C)C)NC(=O)[C@H](Cc1c[nH]c2ccccc12)NC(=O)[C@H](Cc1ccccc1)NC(=O)[C@H](CCC(=O)O)NC(=O)[C@H](CC(C)C)NC(=O)[C@H](CC(=O)O)NC(=O)[C@H](CC(=O)O)NC(=O)[C@H](CO)NC(C)=O)C(C)C)C(=O)N[C@@H](Cc1ccc(Cl)c(Cl)c1)C(N)=O` (I: Ac-SDDLEFWCHVM[Phe(3,4-Cl2)]-NH2 / II: Ac-SDDLEFWCHVM[Phe(3,4-Cl2)]-NH2; disulfide I:8-II:8), the Kd amounted to 0.9 nM.

For `CCCC[C@H](NC(=O)[C@H](CC(=O)O)NC(=O)[C@H](CC(=O)O)NC(=O)[C@H](CO)NC(C)=O)C(=O)N[C@@H](CCC(=O)O)C(=O)N[C@@H](Cc1ccccc1)C(=O)N[C@@H](Cc1c[nH]c2ccccc12)C(=O)N[C@@H](CSSC[C@H](NC(=O)[C@H](Cc1c[nH]c2ccccc12)NC(=O)[C@H](Cc1ccccc1)NC(=O)[C@H](CCC(=O)O)NC(=O)[C@H](CCCC)NC(=O)[C@H](CC(=O)O)NC(=O)[C@H](CC(=O)O)NC(=O)[C@H](CO)NC(C)=O)C(=O)N[C@@H](Cc1cnc[nH]1)C(=O)N[C@H](C(=O)N[C@@H](CCSC)C(=O)N[C@@H](Cc1ccc(O)cc1)C(N)=O)C(C)C)C(=O)N[C@@H](Cc1cnc[nH]1)C(=O)N[C@H](C(=O)N[C@@H](CCSC)C(=O)N[C@@H](Cc1ccc(O)cc1)C(N)=O)C(C)C` (I: Ac-SDD[Nle]EFWCHVMY-NH2 / II: Ac-SDD[Nle]EFWCHVMY-NH2; disulfide I:8-II:8), the Kd worked out at 23 nM.

In the case of `CSCC[C@H](NC(=O)[C@@H](NC(=O)[C@H](Cc1cnc[nH]1)NC(=O)[C@H](CSSC[C@H](NC(=O)[C@H](Cc1c[nH]c2ccccc12)NC(=O)[C@H](Cc1ccccc1)NC(=O)[C@H](CCC(=O)O)NC(=O)[C@H](CCC(C)C)NC(=O)[C@H](CC(=O)O)NC(=O)[C@H](CC(=O)O)NC(=O)[C@H](CO)NC(C)=O)C(=O)N[C@@H](Cc1cnc[nH]1)C(=O)N[C@H](C(=O)N[C@@H](CCSC)C(=O)N[C@@H](Cc1ccc(O)cc1)C(N)=O)C(C)C)NC(=O)[C@H](Cc1c[nH]c2ccccc12)NC(=O)[C@H](Cc1ccccc1)NC(=O)[C@H](CCC(=O)O)NC(=O)[C@H](CCC(C)C)NC(=O)[C@H](CC(=O)O)NC(=O)[C@H](CC(=O)O)NC(=O)[C@H](CO)NC(C)=O)C(C)C)C(=O)N[C@@H](Cc1ccc(O)cc1)C(N)=O` (I: Ac-SDD[hLeu]EFWCHVMY-NH2 / II: Ac-SDD[hLeu]EFWCHVMY-NH2; disulfide I:8-II:8), the Kd is 124 nM. Regarding `CSCC[C@H](NC(=O)[C@@H](NC(=O)[C@H](Cc1cnc[nH]1)NC(=O)[C@H](CSSC[C@H](NC(=O)[C@H](Cc1c[nH]c2ccccc12)NC(=O)[C@H](Cc1ccccc1)NC(=O)[C@H](CCC(=O)O)NC(=O)[C@H](CC(C)(C)C)NC(=O)[C@H](CC(=O)O)NC(=O)[C@H](CC(=O)O)NC(=O)[C@H](CO)NC(C)=O)C(=O)N[C@@H](Cc1cnc[nH]1)C(=O)N[C@H](C(=O)N[C@@H](CCSC)C(=O)N[C@@H](Cc1ccc(O)cc1)C(N)=O)C(C)C)NC(=O)[C@H](Cc1c[nH]c2ccccc12)NC(=O)[C@H](Cc1ccccc1)NC(=O)[C@H](CCC(=O)O)NC(=O)[C@H](CC(C)(C)C)NC(=O)[C@H](CC(=O)O)NC(=O)[C@H](CC(=O)O)NC(=O)[C@H](CO)NC(C)=O)C(C)C)C(=O)N[C@@H](Cc1ccc(O)cc1)C(N)=O` (I: Ac-SDD[tBuAla]EFWCHVMY-NH2 / II: Ac-SDD[tBuAla]EFWCHVMY-NH2; disulfide I:8-II:8), the Kd stood at 0.95 nM.

Values taken from BindingDB's records for doi:10.1021/acs.jmedchem.9b00500 (2019).
